According to patent US4513008A, “Virucidal compositions and therapy” (The Vinoxen Company, Inc., priority 1982, dated 1985):

Assays:
[1] = tested on: HSV-2; test: In vivo mouse bioassay: intravaginal HSV-2 infection, topical treatment; set-up: species or system HSV-2 strain 333 in female Swiss Webster mice; key to Max. Lesion Score: 0: no clinical signs of vaginal infection; ±: slight perivaginal redness; perivaginal redness and swelling of 1-2 mm; perivaginal redness and swelling of 2-3 mm; perivaginal and perianal redness and swelling of 3-4 mm; perivaginal and perianal redness and swelling of 4 mm or more, with exudate; conditions: for # Infected, Day 14 / # of Deaths, Day 14: 10 animals/group
[2] = tested on: herpes virus type 2; test: Guinea pig bioassay: intravaginal HSV-2 infection, topical treatment; format: in vivo; set-up: key to MVL Score Day 5 / MVL Score Day 6 / MVL Score Day 7 / MVL Score Day: lesion severity scored on 0 to 4 scale
Protocol: In both studies, DHA was compared with ACV in a controlled study for effectiveness in reducing the occurrence and the severity of lesions resulting from infection by HSV-2 and in reducing mortality resulting from the virus infection.
Using substantially the procedures of Pancic et al., loc. cit., the topical activity of DHA, a representative and preferred virucide for use in the present method, was evaluated in mice and in guinea pigs. Both evaluations included comparative testing against ACV and the mouse tests included a comparison of two different vehicles.
A blind comparative test was carried out on guinea pigs using coded substances labeled A through D. The testers were told only that one of the four substances was ACV, that the other three coded samples were the same material, in concentrations of 0.1, 1.0 and 10 mg/ml, and that all four samples were formulated in a polyethylene glycol 1000 (PEG-1000) vehicle. A separate sample of the PEG-1000 was also submitted to serve as a placebo for treating virus control animals. The materials and experimental protocol is shown below.
Animals. Female Hartley strain albino guinea pigs weighing about 450-500 g were used. The animals were quarantined 24 hr prior to use in this study, and maintained 5 to a 32"×32"×9" stainless steel cage on Wayne guinea pig diet and water ad libitum.
Virus. Strain E194 of herpes virus type 2 was used. […] The virus was held at -90° C. until used.
(§1) Drugs. The substances tested consisted of four bottles labelled "A", "B", "C", and "D" with no identifying key. The samples were: A, 0.1 mg/ml DHA (0.003 mmol/ml); B, 5% w/w ACV (0.22 mmol/ml); C, 1 mg/ml DHA (0.03 mmol/ml); and D, 10 mg/ml DHA ([…]). […] All were treated as light-sensitive compounds.
Experimental Protocol. The guinea pigs were infected by applying a virus-soaked swab intravaginally, with agitation, for 20 seconds. […] Treatment began 20 hr later, with the compound or placebo applied topically intravaginally, perivaginally, and perianally using cotton swabs soaked in the respective substance. Treatment continued three times daily (8 a.m., noon, 4 p.m.) for 7 days. Ten infected animals were used for each coded substance, with twenty used for virus controls. Five sham-infected animals were concomitantly treated with each coded substance to serve as toxicity controls. Two guinea pigs were held separately to serve as normal untreated controls.
(§2) On days 5 through 8 post-virus inoculation, the genital area was carefully examined and signs of irritation in the toxicity controls and lesion severity in injected animals was scored on a 0 to 4 scale using the same scale as in the mouse bioassay. The results were scored as average daily lesion (ADL) scores for each group, and as mean vaginal lesion (MVL) scores, calculated as the mean of the ADL scores for days 5-8. The maximum mean score for the toxicity control animals was also determined.
On day 6 prior to the 8 a.m. treatment, intravaginal and perivaginal areas of each infected guinea pig were uniformly swabbed with sterile cotton swabs. The swab for each animal was placed in 1.0 ml of sterile Eagles minimum essential medium and immediately frozen at -90° C.; several days later all were thawed and each swab-containing sample vortexed for 15 seconds and then the sample was diluted through a series of 10-fold dilutions in sterile medium. Each dilution was assayed for virus in triplicate by adding 0.1 ml to an established monolayer of MA-104 cells in 96-well disposable plastic microplates. The plates were sealed, incubated at 72 hr at 37° C., and virus-induced cytopathic effect noted microscopically.
Data Analysis. Increases in survivors were analyzed using chi square analysis with Yate's correction. Mean survival times (MST) of animals dying on or before […] were determined for each group, and evaluated using the t test.

[3] = Guinea pig toxicity controls (sham-infected, topical treatment); format: in vivo, guinea pigs; conditions: B: 5% w/w ACV in PEG-1000
Protocol: as §1
Experimental Protocol. The guinea pigs were infected by applying a virus-soaked swab intravaginally, with agitation, for 20 seconds. Toxicity control animals were similar pretreated using swabs soaked in sterile Puck's balanced salt solution. Treatment began 20 hr later, with the compound or placebo applied topically intravaginally, perivaginally, and perianally using cotton swabs soaked in the respective substance. Treatment continued three times daily (8 a.m., noon, 4 p.m.) for 7 days. Ten infected animals were used for each coded substance, with twenty used for virus controls. Five sham-infected animals were concomitantly treated with each coded substance to serve as toxicity controls. Two guinea pigs were held separately to serve as normal untreated controls.
as §2, with “Each animal was observed daily for survival for a total of 28 days. On” for “On”

[4] = tested on: PR4 bacteriophage; conditions: PR4 bacteriophage in vitro; cited from earlier work
[5] = tested on: gram-positive and gram-negative microorganisms; conditions: cited from earlier work
[6] = tested on: herpes simplex virus type 2 (HSV-2); test: In vitro HSV-2 bioassay: virucidal plaque assay (HEP-2 cells); format: cell-based, HSV-2 strain 333; conditions: for plaque count: TNTC = too numerous to count
Protocol: Evidence of the efficacy of the virucides of the invention in vitro has been obtained from bioassay using HSV-2, using a standard assay procedure. Serial dilutions of the compounds were tested for their ability to prevent plaque formation by a stock virus suspension. Reduction of plaque titer by test compounds as compared to mock treated controls was indicative of virucidal activity. […] These represent the upper limit for the drug concentration, since dilutions were not carried beyond 1:6400 and in some cases 1:12800.
Cell Culture. Cell cultures used for the propagation and titration of HSV-2 were the human diploid lung embryonic line MRC-5 and the human malignant epitheloid cell line HEP-2 respectively. Stock monolayer cultures of both cell lines were propagated in Dulbecco's Modified Eagle's medium (DME) supplemented with 10% (V/V) calf serum. Spinner cultures for mass production of HEP-2 cells were grown in Joklik's medium supplemented with 10% (V/V) calf serum and 1% (W/V) pluronic acid. Monolayer cultures of HEP-2 cells for plaque or virucidal assay were seeded into 60 mm dishes in DME supplemented with 10% calf serum and antibiotics. Stock cultures were maintained in antibiotic free medium.
Herpes simplex virus, type 2 (HSV-2) strain 333 was obtained from Dr. John Hughes of the Dept. of Medical Microbiology, College of Medicine, The Ohio State University. Stocks of HSV-2 were prepared in the human diploid embryonic lung cell line, MRC-5. Confluent MRC-5 monolayer cultures in T-75 plastic flasks were washed one time with Hank's and Balanced Salt solution (HBSS) and infected with 0.5 ml of HSV-2, strain 333 stock. Virus was adsorbed for 1 hour at 37° C. Then the culture was refed with 15 ml of DME supplemented with 1% (V/V) calf serum. Virus was harvested 48 hours later when cytopathology was complete. Cultures were frozen and thawed rapidly three times to release cell associated virus, clarified by centrifugation at 10,000×g for 15 minutes at 4° C., aliquoted into 5 ml lots and frozen at -70° C. One lot was taken for virus titration.
HSV-2 was titrated by plaque assay in HEP-2 cells under a semi-solid methyl cellulose overlay. Tenfold serial dilutions of virus were prepared in HBSS and 0.3 ml aliquots of each dilution inoculated onto triplicate HEP-2 cell monolayers in 60 mm plastic petri dishes. Adsorption of virus was for 1 hour at 37° C. Plates were then overlayed with 5 ml of a 1:1 mixture of 2×DME supplemented with 2% (V/V) calf serum and 3% (W/V) methyl cellulose to give a final 1×DME supplemented with 1% calf serum and 1.5% methylcellulose. Infected plates were incubated at 37° C. in a humidified 10% CO2 atmosphere for 48 hours. Virus plaques were visualized by staining with crystal violet and counted under a dissecting microscope. Virus titers were calculated from the plaque numbers by averaging the plaque count and multiplying by 3.3 (0.3 ml plates).
The following procedure was employed to assay virucidal activity in various test samples. Compounds were received as a solution in DMSO and were serially diluted in HBSS as described for each experiment. For the test, 1 ml of each dilution was mixed with 1 ml of a stock virus suspension diluted to approximately 9×10^3 plaque forming units (P.F.U.)/ml. This test mixture was incubated at 25° C. for 30 minutes, then inoculated onto a cell culture (HEP-2) for plaque assay as described previously. Mock treated (virus plus HBSS) controls were included with each test. Any reduction of plaque titer by test compounds as compared to the mock treated control was indicative of virucidal activity.
Samples from RP-HPLC fractionation of the CLOH, produced according to Example 2, as well as purified samples of palmitic, myristic and oleic acids and Vitamin D2, were tested for HSV-2 bioactivity. […] Pure oleic acid was not active in this assay, nor were palmitic and myristic acids and Vitamin D2. […]

[7] = tested on: bacteriophage; conditions: cited from earlier work
[8] = tested on: virus; conditions: cited from earlier work

Nc1nc2c(ncn2COCCO)c(=O)[nH]1 [Acyclovir, 9-(2-hydroxyethoxymethyl)guanine, reference compound]
Max. Lesion Score ([1]; ACV 5% wt/vol in DMSO): ±
# Infected, Day 14 ([1]; ACV 5% wt/vol in DMSO): 3
# of Deaths, Day 14 ([1]; ACV 5% wt/vol in DMSO): 0
Max. Lesion Score ([1]; ACV 5% wt/vol in PEG): ±
# Infected, Day 14 ([1]; ACV 5% wt/vol in PEG): 4
# of Deaths, Day 14 ([1]; ACV 5% wt/vol in PEG): 0
% Mortality ([1]; DMSO & Acyclovir (5%)): 0%
Day of Maximum % Morbidity ([1]; DMSO & Acyclovir (5%)): 7 days
Maximum % Morbidity ([1]; DMSO & Acyclovir (5%)): 30%
Mean Day of Death ([1]; DMSO & Acyclovir (5%)): > 14 days
% Mortality ([1]; Ointment & Acyclovir (5%)): 0%
Day of Maximum % Morbidity ([1]; Ointment & Acyclovir (5%)): 7 days
Maximum % Morbidity ([1]; Ointment & Acyclovir (5%)): 40%
Mean Day of Death ([1]; Ointment & Acyclovir (5%)): > 14 days
survival rate ([1]; both carrier vehicles, observed 14 day period): 100%
efficacy in mice in words ([1]; topical, HSV-2 infected mice): effective in minimizing the clinical signs of infection in either carrier vehicle
MVL Score Day 5 ([2]; B: 5% w/w ACV in PEG-1000): 1.8
MVL Score Day 7 ([2]; B: 5% w/w ACV in PEG-1000): 3.4
MVL Scores Days 5-8 ([2]; B: 5% w/w ACV in PEG-1000, 0 to 4 scale): 2.8
Infected, Treated Surv/Total ([2]; B: 5% w/w ACV in PEG-1000, 28 days): 5/10
MVL Score Day 6 ([2]; B: 5% w/w ACV in PEG-1000, P < 0.05): 2.3
MVL Score Day ([2]; B: 5% w/w ACV in PEG-1000, last day): 3.3
reduction in lesion scores, in words ([2]; guinea pigs, topical): neither ACV nor the lowest dosage of DHA were able to achieve a statistically significant reduction in lesion scores
Toxicity Controls Surv/Total [3]: 5/5
Toxicity Controls Max. Irrit. Score ([3]; 0 to 4 scale): 0.0

CCCCC/C=C\C/C=C\C/C=C\C/C=C\CCCC(=O)O [Arachidonic acid]
inhibition of viral replication, in words [4]: moderately effective, but less effective than linolenic acid
inhibition of growth of microorganisms, in words [5]: not inhibitory at the concentrations tested

CCCCCCCC/C=C\CCCCCCCC(=O)O [Oleic acid, reference compound]
plaque count ([6]; Table 1, dilution 1:10): 36
titer ([6]; Table 1, dilution 1:10, controls 2.6 × 10^4 (a), 1.3 × 10^4 (b)): 1.2 × 10^2
plaque count ([6]; Table 1, dilution 1:100): TNTC
plaque count ([6]; Table 1, dilution 1:200): TNTC
plaque count ([6]; Table 1, dilution 1:400): TNTC
plaque count ([6]; Table 1, dilution 1:800): TNTC
plaque count ([6]; Table 1, dilution 1:1600): TNTC
plaque count ([6]; Table 1, dilution 1:3200): TNTC
plaque count ([6]; Table 1, dilution 1:6400): TNTC
virucidal activity against HSV-2 in words ([6]; in vitro bioassay): not active
inactivation of virus (virucidal activity), in words [7]: most effective fatty acid tested
inhibition of viral replication, in words [4]: most effective

CCCCCC=CCC=CCC=CCCCCCO [gamma-linolenyl alcohol, 6,9,12-octadecatrien-1-ol]
antiviral activity in vitro, in words [8]: most active

CCCCCC/C=C\CCCCCCCC(=O)O [palmitoleic acid]
inhibition of viral replication, in words [4]: most effective
